Experimental data published in PubChem BioAssay (NCI).
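How tested: cells in 96-well plates exposed to compound for 48 hours at five concentrations. GI50 is the concentration that inhibits growth by half. Definition used: TGI = concentration required for complete inhibition of growth.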

Experiments:
Assay in all cases: NCI-60 cell line screen, 48 h
DU-145 prostate = test system: DU-145 prostate
MCF7 breast = test system: MCF7 breast
SN12C renal = test system: SN12C renal
IGROV1 ovarian = test system: IGROV1 ovarian
RXF 393 renal = test system: RXF 393 renal
HOP-92 NSCLC = test system: HOP-92 NSCLC
A549 NSCLC = test system: A549 NSCLC
UACC-62 melanoma = test system: UACC-62 melanoma
CCRF-CEM leukemia = test system: CCRF-CEM leukemia
KM12 colon = test system: KM12 colon
COLO 205 colon = test system: COLO 205 colon
SF-268 CNS = test system: SF-268 CNS
M14 melanoma = test system: M14 melanoma
OVCAR-8 ovarian = test system: OVCAR-8 ovarian
OVCAR-4 ovarian = test system: OVCAR-4 ovarian
ACHN renal = test system: ACHN renal
U251 CNS = test system: U251 CNS
HCC-2998 colon = test system: HCC-2998 colon
HCT-15 colon = test system: HCT-15 colon
K-562 leukemia = test system: K-562 leukemia
SK-MEL-2 melanoma = test system: SK-MEL-2 melanoma
UO-31 renal = test system: UO-31 renal
SK-MEL-5 melanoma = test system: SK-MEL-5 melanoma
PC-3 prostate = test system: PC-3 prostate
TK-10 renal = test system: TK-10 renal
NCI-H522 lung = test system: NCI-H522 lung
LOX IMVI melanoma = test system: LOX IMVI melanoma
HCT-116 colon = test system: HCT-116 colon
T-47D breast = test system: T-47D breast
SF-539 CNS = test system: SF-539 CNS
HL-60(TB) leukemia = test system: HL-60(TB) leukemia
NCI-H226 lung = test system: NCI-H226 lung
EKVX NSCLC = test system: EKVX NSCLC
RPMI-8226 leukemia = test system: RPMI-8226 leukemia
SK-OV-3 ovarian = test system: SK-OV-3 ovarian
HT29 colon = test system: HT29 colon
NCI-H23 lung = test system: NCI-H23 lung
OVCAR-3 ovarian = test system: OVCAR-3 ovarian
CAKI-1 renal = test system: CAKI-1 renal
SF-295 CNS = test system: SF-295 CNS
UACC-257 melanoma = test system: UACC-257 melanoma
SNB-19 CNS = test system: SNB-19 CNS
OVCAR-5 ovarian = test system: OVCAR-5 ovarian
SNB-75 CNS = test system: SNB-75 CNS
A498 renal = test system: A498 renal
MALME-3M melanoma = test system: MALME-3M melanoma
NCI-H460 lung = test system: NCI-H460 lung
HS 578T breast = test system: HS 578T breast
MDA-MB-231 breast = test system: MDA-MB-231 breast
BT-549 breast = test system: BT-549 breast
SW-620 colon = test system: SW-620 colon
NCI/ADR-RES ovarian = test system: NCI/ADR-RES ovarian
SR leukemia = test system: SR leukemia
786-0 renal = test system: 786-0 renal
SK-MEL-28 melanoma = test system: SK-MEL-28 melanoma
HOP-62 NSCLC = test system: HOP-62 NSCLC
MOLT-4 leukemia = test system: MOLT-4 leukemia

## COc1ccc(C(=O)Nc2ncc(Cc3cccc(Cl)c3)s2)cc1OC
DU-145 prostate
  GI50: 1880 nM
  TGI: > 100000 nM
MCF7 breast
  GI50: 360 nM
  TGI: > 100000 nM
SN12C renal
  GI50: 1330 nM
  TGI: > 100000 nM
IGROV1 ovarian
  GI50: 525 nM
  TGI: > 100000 nM
RXF 393 renal
  GI50: 1070 nM
  TGI: 6540 nM
HOP-92 NSCLC
  GI50: 1990 nM
  TGI: > 100000 nM
A549 NSCLC
  GI50: 631 nM
  TGI: > 100000 nM
UACC-62 melanoma
  GI50: 17.3 nM
  TGI: > 100000 nM
CCRF-CEM leukemia
  GI50: 626 nM
  TGI: > 100000 nM
KM12 colon
  GI50: 54.7 nM
  TGI: > 100000 nM
COLO 205 colon
  GI50: 222 nM
  TGI: > 100000 nM
SF-268 CNS
  GI50: 882 nM
  TGI: > 100000 nM
M14 melanoma
  GI50: 37.1 nM
  TGI: > 100000 nM
OVCAR-8 ovarian
  GI50: 1560 nM
  TGI: > 100000 nM
OVCAR-4 ovarian
  GI50: 3680 nM
  TGI: > 100000 nM
ACHN renal
  GI50: 81.2 nM
  TGI: > 100000 nM
U251 CNS
  GI50: 505 nM
  TGI: > 100000 nM
HCC-2998 colon
  GI50: 134 nM
  TGI: > 44100 nM
HCT-15 colon
  GI50: 63.1 nM
  TGI: > 100000 nM
K-562 leukemia
  TGI: > 100000 nM
SK-MEL-2 melanoma
  GI50: 557 nM
  TGI: > 100000 nM
UO-31 renal
  GI50: 953 nM
  TGI: > 100000 nM
SK-MEL-5 melanoma
  GI50: 247 nM
  TGI: 11100 nM
PC-3 prostate
  GI50: 1500 nM
  TGI: > 100000 nM
TK-10 renal
  GI50: 7850 nM
  TGI: > 100000 nM
NCI-H522 lung
  GI50: 921 nM
  TGI: > 100000 nM
LOX IMVI melanoma
  GI50: 19.7 nM
  TGI: > 100000 nM
HCT-116 colon
  GI50: 76.9 nM
  TGI: > 100000 nM
T-47D breast
  GI50: 169 nM
  TGI: > 100000 nM
SF-539 CNS
  GI50: 312 nM
  TGI: 2500 nM
HL-60(TB) leukemia
  GI50: 325 nM
  TGI: > 71000 nM
NCI-H226 lung
  GI50: 1480 nM
  TGI: > 100000 nM
EKVX NSCLC
  GI50: 693 nM
  TGI: > 100000 nM
RPMI-8226 leukemia
  GI50: 474 nM
  TGI: 8230 nM
SK-OV-3 ovarian
  GI50: 3590 nM
  TGI: > 100000 nM
HT29 colon
  GI50: 148 nM
  TGI: > 100000 nM
NCI-H23 lung
  GI50: 2510 nM
  TGI: > 100000 nM
OVCAR-3 ovarian
  GI50: 368 nM
  TGI: 9710 nM
CAKI-1 renal
  GI50: 309 nM
  TGI: > 100000 nM
SF-295 CNS
  GI50: 60.7 nM
  TGI: 3640 nM
UACC-257 melanoma
  GI50: 566 nM
  TGI: > 100000 nM
SNB-19 CNS
  GI50: 689 nM
  TGI: > 100000 nM
OVCAR-5 ovarian
  GI50: 1250 nM
  TGI: > 100000 nM
SNB-75 CNS
  GI50: 405 nM
A498 renal
  GI50: 211 nM
  TGI: 1890 nM
MALME-3M melanoma
  GI50: 748 nM
  TGI: > 100000 nM
NCI-H460 lung
  GI50: 61.1 nM
  TGI: > 100000 nM
HS 578T breast
  GI50: 445 nM
  TGI: > 100000 nM
MDA-MB-231 breast
  GI50: 1770 nM
  TGI: > 100000 nM
BT-549 breast
  GI50: 883 nM
  TGI: > 100000 nM
SW-620 colon
  GI50: 56.7 nM
  TGI: > 100000 nM
NCI/ADR-RES ovarian
  GI50: 398 nM
  TGI: > 100000 nM
SR leukemia
  GI50: 164 nM
  TGI: > 100000 nM
786-0 renal
  GI50: 1330 nM
  TGI: > 100000 nM
SK-MEL-28 melanoma
  GI50: 119 nM
  TGI: > 100000 nM
HOP-62 NSCLC
  GI50: 546 nM
  TGI: > 100000 nM
MOLT-4 leukemia
  GI50: 374 nM
  TGI: > 100000 nM
